Here are results for 4 compounds from patent US8227431B2, “Nucleoside derivatives” (Hetero Drugs Limited, priority 2008, dated 2012).

Molecules are shown by their SMILES. pIC50: −log10 of the molar value.

The test system of one series is HIV-1-93IN101. The series can be described thus: P24 assay (viral p24 ELISA). Type of series: cell-based. Conditions: Cell line Supt-1, Virus HIV-1-93IN101; for pIC50: Human immunodeficiency virus 1, SUP-T1, p24 ELISA about 72 hours post infection, read-out: Inhibitory concentration 50 (IC50). Here is the method:
Viral p24 was measured after about 72 hours of post infection in presence of drugs using ABL p24 ELISA kit. 0.5 millions cells/well were taken into the 24 well plates and added increasing concentrations of drugs. 1 ng/ml of HIV-1 virus was added to each well and incubated for overnight at 37° C. (37° C. and 5% CO2). After about 16 hours incubation media was changed and added fresh media and cultured for about 72 hours. P24 was quantified at 4th day of post-infection using ABL kit according to manufacturer's instructions. The above described examples were tested in the two biological assays as described above and some compounds were found following results as shown in table 2. Cell line Supt-1; Virus: HIV-1-93IN101

A short description of series [1]: Cell viability assay (MTT). Type of series: cell-based. Conditions: human, Supt-1 cells, Cell line Supt-1, about 14 hours incubation, read-out: Cytotoxicity concentration (CC50). As to the method:
Reduction of 3-(4,5-dimethylthiozol-2-yl)-2,5-diphenyltetrazolium bromide (MTT, sigma) is chosen as an optimal mend point of cell viability measurement (Mosmann, 1983; Cole, 1986; alley et al., 1988). Cells (0.2×10^6 cells per well) were seeded in 96-well plates. Increasing concentrations of compound were added to the cells and incubated at 37° C. for about 14 hours in a CO2 Incubator with 5% CO2. The media was replaced with a fresh growth medium along with 20 μL of 5 mg/ml 3-(4,5-dimethylthiazol-2-yl)-2,5-diphenyltetrazolium bromide (MTT, Sigma). After incubation for about 4 hours in a humidified atmosphere, the media was removed and 200 μL of 0.1N acidic isopropyl alcohol was added to the wells to dissolve the MTT-formazan crystals. The absorbance was recorded at 570 nm, immediately after the development of purple colour. Each experiment was conducted in triplicate and the data are represented as average, with standard deviation. Percent viability of the cells was computed with reference to the absorbance of reduced MTT in the experiments conducted in absence of any compound. The above described examples were tested in the two biological assays as described above and some compounds were found following results as shown in table 2. Cell line Supt-1; Virus: HIV-1-93IN101

Take `C[C@]1(F)C(n2cnc3c(N)ncnc32)O[C@H](CO)[C@]1(C)O` (stereo partly drawn) [Example 2A, (2R,3S,4R)-5-(6-amino-9H-purin-9-yl)-4-fluoro-tetrahydro-2-(hydroxymethyl)-3,4-dimethylfuran-3-ol]: in the series with HIV-1-93IN101, the “Therapeutic Index (TI): CC50/IC50” value was over 1 and the pIC50 is under 3.00. Further, the CC50 in series [1] is over 1000 µM.
Taken in the same sequence, the figures for `CC1(O)[C@@H](CO)OC(n2cnc3c(NC4CC4)ncnc32)[C@]1(C)F` (stereo partly drawn) [Example 16, (2R,4R)-5-(6-(cyclopropylamino)-9H-purin-9yl)-4-fluoro-tetrahydro-2-(hydroxymethyl)-3,4-dimethylfuran-3-ol] were 1.4, 3.52 and 424 µM.
Turning to `C[C@]1(F)[C@H](n2ccc(=O)[nH]c2=O)O[C@H](CO)[C@@]1(C)O` [Example 22, 1-((2R,4R)-3-fluoro-tetrahydro-4-hydroxy-5-(hydroxymethyl)-3,4-dimethylfuran-2-yl)pyrimidine-2,4(1H,3H)-dione], in the series with HIV-1-93IN101, the “Therapeutic Index (TI): CC50/IC50” value is over 1 and the pIC50 was under 3.00. In series [1], the CC50 was over 1000 µM.
Turning to `C[C@]1(F)[C@H](n2ccc(N)nc2=O)O[C@H](CO)[C@@]1(C)O` [Example 23, 4-amino1-((2R,4R)-3-fluoro-tetrahydro-4-hydroxy-5-(hydroxymethyl)-3,4-dimethylfuran-2-yl)pyrimidin-2(1H)-one], in the series with HIV-1-93IN101, the “Therapeutic Index (TI): CC50/IC50” value is over 1 and the pIC50 was under 3.00. Also, the CC50 in series [1] is over 1000 µM.
